Reference: patent US20200094031A1, “TREATMENT OF A DISEASE OF THE GASTROINTESTINAL TRACT WITH A CHST15 INHIBITOR” (Progenity, Inc., priority 2017, published 2020)
Read-outs that look alike come from different tables or passages of the source.

Experiments:
[1] = Blood pharmacokinetics of oral vs intra-cecal tacrolimus (Example 13); design: species or system Yorkshire-Cross farm swine; conditions: in vivo; for concentration at 12 hr: Trough (12 hr)
Excerpt: (§1) No further randomization procedure was employed.

[2] = Tissue, plasma, rectal sample and GI content pharmacokinetics of tacrolimus, oral vs intra-cecal ingestible device (Example 10); design: species or system Yorkshire-Cross farm swine; conditions: in vivo
Description: The primary objective of this study was to compare the tissue, plasma, rectal sample, and GI content pharmacokinetics of tacrolimus through oral versus intra-cecal ingestible device delivery in normal Yorkshire-Cross farm swine.
as §1
Animals in Group 1 received an ingestible device containing 0.8 mL of vehicle solution (80% alcohol, 20% HCO-60). Animals in Group 2 received orally […] liquid formulation of tacrolimus at 4 mg/0.8 mL per animal (Prograf: 5 mg/mL). Animals in Group 3 received intra-cecally an ingestible device containing tacrolimus at 1 mg in 0.8 mL per ingestible device. Animals in Group 4 received intra-cecally an ingestible device containing tacrolimus at 2 mg in 0.8 mL per ingestible device. Animals in Group 5 received intra-cecally an ingestible device containing tacrolimus at 4 mg in 0.8 mL per ingestible device. To control for potential confounding effects of the surgery, all groups fast on Day −11 at least 24 hr before being subjected to anesthesia followed by surgical placements of a cecal port by a veterinary surgeon at Day −10. All animals were fasted for at least 12 hr prior to dosing on Day 1. Animals were dosed via either intra-cecal dosing (IC) or oral dosing (PO) at Day 1 (between 6-8 p.m.). All animals resumed feeding at approximately 4 hours after dose (11-12 p.m. after dosing).
Animals in Group 1 (Vehicle Control) were administered a single intra-cecal ingestible device containing 0.8 mL Vehicle solution (80% alcohol, 20% castor oil (HCO-60) on Day 1. On Day −10 the animals were anesthetized, and a veterinary surgeon surgically placed an intra-cecal port in each animal. On Day 1, each animal was placed into a sling then a single intra-cecal ingestible device containing 0.8 mL vehicle solution (80% alcohol, 20% castor oil (HCO-60)) is introduced by the veterinary surgeon into the cecum via the cecal port in each animal. Following ingestible device placement, the animals were removed from the slings and placed back into their pens with water. All animals resumed feeding at approximately 4 hours after dose. […] A total of 60 samples were collected.
Approximately 200˜400 mg of rectal content were collected, if available, with a fecal swab (Copan Diagnostics Nylon Flocked Dry Swabs, 502CS01). The fecal swab was pre-weighed and weighed after collection in the collection tube (Sterile Tube and Cap No Media, PFPM913S), and the sample weight was recorded. The fecal swab was broken via the breakpoint, and was stored in the collection tube, and immediately frozen at −70° C. […] Immediately following euthanasia, tissue was collected.
For tissue necropsy, small intestine fluid and cecal fluid were collected separately from all the animals into two separate square plastic bottles, and stored at −20° C. The length and diameter of the cecum and the colon was measured from one animal in each group and recorded for reference. Tissues were collected for pharmacokinetic analyses and include mesenteric lymph nodes, a Peyer's Patch, and five gastrointestinal sections, including cecum, proximal colon, transverse colon, distal colon, and rectum. All samples were weighed, and the tissue sample weights were recorded. In each of the five gastrointestinal sections, tissue samples were collected in three different areas where the mucosal surface was visible and not covered by luminal content by using an 8.0-mm punch biopsy tool. Around 3 grams of the total punched sample were collected into a pre-weighed 15-mL conical tube, and the tissue weight was recorded. Three mesenteric lymph nodes were collected from different areas and weighed. At least one Peyer's Patch was collected and weighed.
Luminal contents were collected for pharmacokinetic analyses from the surface of the tissue from each of five gastrointestinal sections: cecum, proximal colon, transverse colon, distal colon, and rectum (total of 75). […]

[3] = Tacrolimus concentration in gastrointestinal tissue, luminal content and rectal contents, and tissue/plasma ratios (Example 13); assay type: in vivo, Yorkshire-Cross farm swine; conditions: female, Yorkshire-Cross, pig; for concentration at 12 hr: other: intra-cecal device; for concentration at 12 hr / concentration at 12 h: 12 hr post dose
Description: The primary objective of this study was to study the pharmacokinetics of oral versus intra-cecal administration of tacrolimus in normal Yorkshire-Cross farm swine.
This study compares the effects of administration of: a single intra-cecal administration of a device containing 0.8 mL sterile vehicle solution (80% alcohol, 20% castor oil (HCO-60)); a single oral dose of tacrolimus at 0.09 mg/kg (in sterile vehicle solution); and a single intra-cecal administration of a device containing either 0.02 mg/kg (in sterile vehicle solution), 0.04 mg/kg (in sterile vehicle solution), or 0.09 mg/kg (in sterile vehicle solution).
This study employed five groups of three female swine weighing approximately 45 to 50 kg at study start. Swine were randomly placed into animal rooms/pens as they are transferred from the delivery vehicle without regard to group. Group numbers were assigned to the rooms in order of room number. No further randomization procedure was employed.
Animals in Group 1 received intra-cecally a device containing a vehicle solution (80% alcohol, 20% HCO-60). Animals in Group 2 received orally a liquid formulation of tacrolimus at 0.09 mg/kg per animal. Animals in Group 3 received intra-cecally a device containing tacrolimus at 0.02 mg/kg per device. Animals in Group 4 received intra-cecally a device containing tacrolimus 0.04 mg/kg per device. Animals in Group 5 received intra-cecally a device containing tacrolimus 0.09 mg/kg per device.

[4] = female, Yorkshire-Cross, pig, 0.02 mg/kg
[5] = female, Yorkshire-Cross, pig, 0.04 mg/kg
[6] = female, Yorkshire-Cross, pig, 0.09 mg/kg

Work on `C=CC[C@@H]1/C=C(\C)C[C@H](C)C[C@H](OC)[C@H]2O[C@@](O)(C(=O)C(=O)N3CCCC[C@H]3C(=O)O[C@H](/C(C)=C/[C@@H]3CC[C@@H](O)[C@H](OC)C3)[C@H](C)[C@@H](O)CC1=O)[C@H](C)C[C@@H]2OC` [tacrolimus] yielded an AUC(0-t) [1, 4] of 15.3 ± 2.36 ng·h/mL, a Cmax [1, 4] of 2.39 ± 0.57 ng/mL and a concentration at 12 hr [1, 4] of 0.746 ± 0.038 ng/mL. It also gave an AUC(0-t) [1, 5] of 51.4 ± 4.04 ng·h/mL, a Cmax [1, 5] of 9.2 ± 3.3 ng/mL and a concentration at 12 hr [1, 5] of 1.96 ± 0.491 ng/mL. The AUC(0-t) [1, 6] was 130 ± 7.83 ng·h/mL, the Cmax [1, 6] was 21.8 ± 4.73 ng/mL and the concentration at 12 hr [1, 6] was 4.35 ± 0.561 ng/mL. The concentration at 12 hr ([1]; female, Yorkshire-Cross, pig, po, 0.09 mg/kg) was 0.568 ± 0.291 ng/mL, the concentration at 12 h ([1]; female, Yorkshire-Cross, pig, po, 0.09 mg/kg, Trough level (12 hr)) was 0.568 ng/mL and the “mean concentration and AUC0-12 hours of tacrolimus in the blood” value ([1]; po, 0.09 mg/kg) was “higher”. The “exposure AUC” value [2] was < 2000-12 ng·h/mL, the “luminal content (spiral, transverse, and distal colon) concentrations” value [2] was “Significantly higher” and the “mean concentration of tacrolimus in the cecum tissue and the proximate colon tissue” value [2] was “higher”. The “tissue (spiral and transverse colon) concentrations” value [2] was “Significantly higher”, the “level of tacrolimus in tissue” value ([2]; po) was “No measurable level” and the rectal content concentration ([2]; po) was “no detectable level”. The Kp at 12 h ([3]; cecum tissue, other: intra-cecal, 0.04 mg/kg, cecum, Group 4 IC (0.04 mg/kg), swine, read-out: Ratio Tissue (mean) (ng/g)/Trough(12 hr) (ng/ml)) was 26.7, the Kp at 12 h ([3]; cecum tissue, other: intra-cecal, 0.09 mg/kg, cecum, Group 5 IC (0.09 mg/kg), swine, read-out: Ratio Tissue (mean) (ng/g)/Trough(12 hr) (ng/ml)) was 17.8 and the Kp at 12 h ([3]; distal colon tissue, other: intra-cecal, 0.02 mg/kg, distal colon, Group 3 IC (0.02 mg/kg), swine, read-out: Ratio Tissue (mean) (ng/g)/Trough(12 hr) (ng/ml)) was 59.9. The Kp at 12 h ([3]; distal colon tissue, other: intra-cecal, 0.04 mg/kg, distal colon, Group 4 IC (0.04 mg/kg), swine, read-out: Ratio Tissue (mean) (ng/g)/Trough(12 hr) (ng/ml)) was 14.6, the Kp at 12 h ([3]; distal colon tissue, other: intra-cecal, 0.09 mg/kg, distal colon, Group 5 IC (0.09 mg/kg), swine, read-out: Ratio Tissue (mean) (ng/g)/Trough(12 hr) (ng/ml)) was 15.6 and the “Ratio Tissue (mean) (ng/g)/AUG(0-12 hr) (ng · hr/ml)” value ([3]; in vivo, po, 0.09 mg/kg, 12 h) was 0. For the same molecule, the “Ratio Tissue (mean) (ng/g)/Trough(12 hr) (ng/ml)” value ([3]; in vivo, po, 0.09 mg/kg, 12 h) was 0, the Kp at 12 h ([3]; in vivo, po, 0.09 mg/kg, Ratio Tissue (mean) (ng/g)/AUG(0-12 hr) (ng · hr/ml)) was 0 and the Kp at 12 h ([3]; in vivo, po, 0.09 mg/kg, Ratio Tissue (mean) (ng/g)/Trough(12 hr) (ng/ml)) was 0. The concentration at 12 hr ([3]; distal colon tissue, Group 3 IC (0.02 mg/kg), swine) was 44.7 ng/g, the concentration at 12 hr ([3]; proximal colon tissue, Group 3 IC (0.02 mg/kg), swine) was 50.2 ng/g and the concentration at 12 hr ([3]; spiral colon tissue, Group 3 IC (0.02 mg/kg), swine) was 204 ng/g. For the same molecule, the concentration at 12 hr ([3]; spiral colon tissue, Group 4 IC (0.04 mg/kg), swine) was 342 ng/g, the concentration at 12 hr ([3]; spiral colon tissue, Group 5 IC (0.09 mg/kg), swine) was 783 ng/g and the concentration at 12 hr ([3]; transverse colon tissue, Group 3 IC (0.02 mg/kg), swine) was 128 ng/g. It also gave a concentration at 12 hr ([3]; transverse colon tissue, Group 4 IC (0.04 mg/kg), swine) of 85.8 ng/g, a concentration at 12 hr ([3]; transverse colon tissue, Group 5 IC (0.09 mg/kg), swine) of 272 ng/g and a concentration at 12 h ([3]; other: intra-cecal, cecum tissue, Group 4 IC (0.04 mg/kg), swine) of 52.3 ng/g. It also gave a concentration at 12 h ([3]; other: intra-cecal, cecum tissue, Group 5 IC (0.09 mg/kg), swine) of 77.3 ng/g, a concentration at 12 h ([3]; other: intra-cecal, distal colon tissue, Group 4 IC (0.04 mg/kg), swine) of 28.7 ng/g and a concentration at 12 h ([3]; other: intra-cecal, distal colon tissue, Group 5 IC (0.09 mg/kg), swine) of 67.7 ng/g. It also gave a concentration at 12 h ([3]; other: intra-cecal, proximal colon tissue, Group 4 IC (0.04 mg/kg), swine) of 98.3 ng/g, a concentration at 12 h ([3]; other: intra-cecal, proximal colon tissue, Group 5 IC (0.09 mg/kg), swine) of 157 ng/g and a Kp at 12 h ([3]; proximal colon tissue, other: intra-cecal, 0.02 mg/kg, proximal colon, Group 3 IC (0.02 mg/kg), swine, read-out: Ratio Tissue (mean) (ng/g)/Trough(12 hr) (ng/ml)) of 67.3. It also gave a Kp at 12 h ([3]; proximal colon tissue, other: intra-cecal, 0.04 mg/kg, proximal colon, Group 4 IC (0.04 mg/kg), swine, read-out: Ratio Tissue (mean) (ng/g)/Trough(12 hr) (ng/ml)) of 50.1, a Kp at 12 h ([3]; proximal colon tissue, other: intra-cecal, 0.09 mg/kg, proximal colon, Group 5 IC (0.09 mg/kg), swine, read-out: Ratio Tissue (mean) (ng/g)/Trough(12 hr) (ng/ml)) of 36.1 and a Kp at 12 h ([3]; spiral colon tissue, other: intra-cecal, 0.02 mg/kg, spiral colon, Group 3 IC (0.02 mg/kg), swine, read-out: Ratio Tissue (mean) (ng/g)/Trough(12 hr) (ng/ml)) of 273. It also gave a Kp at 12 h ([3]; spiral colon tissue, other: intra-cecal, 0.04 mg/kg, spiral colon, Group 4 IC (0.04 mg/kg), swine, read-out: Ratio Tissue (mean) (ng/g)/Trough(12 hr) (ng/ml)) of 175, a Kp at 12 h ([3]; spiral colon tissue, other: intra-cecal, 0.09 mg/kg, spiral colon, Group 5 IC (0.09 mg/kg), swine, read-out: Ratio Tissue (mean) (ng/g)/Trough(12 hr) (ng/ml)) of 180 and a Kp at 12 h ([3]; transverse colon tissue, other: intra-cecal, 0.02 mg/kg, transverse colon, Group 3 IC (0.02 mg/kg), swine, read-out: Ratio Tissue (mean) (ng/g)/Trough(12 hr) (ng/ml)) of 172. The Kp at 12 h ([3]; transverse colon tissue, other: intra-cecal, 0.04 mg/kg, transverse colon, Group 4 IC (0.04 mg/kg), swine, read-out: Ratio Tissue (mean) (ng/g)/Trough(12 hr) (ng/ml)) was 43.8 and the Kp at 12 h ([3]; transverse colon tissue, other: intra-cecal, 0.09 mg/kg, transverse colon, Group 5 IC (0.09 mg/kg), swine, read-out: Ratio Tissue (mean) (ng/g)/Trough(12 hr) (ng/ml)) was 62.5.
